Data reported in patent US20170094972A1, “Compounds and Compositions Having Knock-Down Activity Against Insect Pests” (priority 2015, published 2017).

Tests used:
Format in all cases: in vivo
[1] = test system: Anopheles stephensi; assay: 6 well plate test, knockdown after 1 hour and mortality after 24 and 48 hours; design: KD: unit not given here; details: for KD: after 1 hour
Method: The individual wells of six (6) well tissue culture plates were treated with […] of an ethanol solution containing a test compound at a defined concentration. Once the deposits were dry, ten non-blood fed adult female Anopheles stephensi (between two to five day old) were added to each well, and sustained with a 10% sucrose solution in a cotton wool plug. Assessment of the knockdown after 1 hour (Tables B1-B10), and mortality after 24 and 48 hours (Tables B1-B4) was carried out.
In case of multiple tests, the mean value is reported.

[2] = test system: Anopheles stephensi; assay: 12 well plate knockdown test; details: 1 h, read-out: Anopheles stephensi 1 hour % KD; for pest or weed control at 0.2 ppm: Rate 0.2 PPM; for pest or weed control at 2 ppm: Rate 2 PPM; for pest or weed control at 20 ppm: Rate 20 PPM; for pest or weed control at 200 ppm: Rate 200 PPM
Method: (§1) The individual wells of a twelve (12) well tissue culture plates were treated with 100 μl of an ethanol solution containing a test compound at a defined concentration. Once the deposits were dry, five non-blood fed adult female Aedes aegypti or Anopheles stephensi (between two to five day old) were added to each well, and sustained with a 10% sucrose solution in a cotton wool plug. Assessment of the knockdown after 1 hour was carried out. Where multiple replicates of a treatment have been undertaken, the mean of those replicates is reported.

[3] = test system: Aedes aegypti; assay: 12 well plate knockdown test; details: 1 h, read-out: Aedes aegypti 1 hour % KD; for pest or weed control at 0.2 ppm: Rate 0.2 PPM; for pest or weed control at 2 ppm: Rate 2 PPM; for pest or weed control at 20 ppm: Rate 20 PPM; for pest or weed control at 200 ppm: Rate 200 PPM
Method: as §1

CC1(C)[C@H](C(=O)O[C@H](C#N)c2cccc(Oc3ccccc3)c2)[C@@H]1/C=C(\Cl)C(F)(F)F (racemic) [Lambda-cyhalothrin]
0: knockdown after 1 hour, Alone ([1]; Table B5, 0.025 ppm) | knockdown after 1 hour, Alone ([1]; Table B5, 0.05 ppm) | knockdown after 1 hour, Alone ([1]; Table B5, 0.1 ppm)
40: knockdown after 1 hour, Alone ([1]; Table B5, 0.2 ppm)

CNC(=O)c1cc(Cl)cc(C)c1NC(=O)c1cc(Br)nn1-c1ncccc1Cl [Chlorantraniliprole]
0: knockdown after 1 hour, Alone ([1]; Table B9, 12.5 ppm) | knockdown after 1 hour, Alone ([1]; Table B9, 25 ppm) | knockdown after 1 hour, Alone ([1]; Table B9, 50 ppm)
40: knockdown after 1 hour, Alone ([1]; Table B9, 200 ppm)
20: knockdown after 1 hour, Alone ([1]; Table B9, 100 ppm)

CNC(=O)c1cc(C#N)cc(C)c1NC(=O)c1cc(Br)nn1-c1ncccc1Cl [Cyantraniliprole]
20: knockdown after 1 hour, Alone ([1]; Table B8, 200 ppm)
0: knockdown after 1 hour, Alone ([1]; Table B8, 6.25 ppm) | knockdown after 1 hour, Alone ([1]; Table B8, 12.5 ppm) | knockdown after 1 hour, Alone ([1]; Table B8, 25 ppm) | knockdown after 1 hour, Alone ([1]; Table B8, 50 ppm) | knockdown after 1 hour, Alone ([1]; Table B8, 100 ppm)

O=C(NCc1ccc(Cl)cc1)c1cnccc1C(F)(F)F [I.2]
60%: pest or weed control at 2 ppm [2]
80%: pest or weed control at 20 ppm [2]
100%: pest or weed control at 200 ppm [2] | pest or weed control at 0.2 ppm [3] | pest or weed control at 2 ppm [3] | pest or weed control at 20 ppm [3] | pest or weed control at 200 ppm [3]
0%: pest or weed control at 0.2 ppm [2]

CN(C)C(=O)c1cnccc1C(F)(F)F [I.4]
100%: pest or weed control at 2 ppm [2] | pest or weed control at 20 ppm [2] | pest or weed control at 200 ppm [2] | pest or weed control at 0.2 ppm [3] | pest or weed control at 2 ppm [3] | pest or weed control at 20 ppm [3] | pest or weed control at 200 ppm [3]
40%: pest or weed control at 0.2 ppm [2]

O=c1nc(-c2cnccc2C(F)(F)F)os1 [I.5]
60%: pest or weed control at 0.2 ppm [2]
100%: pest or weed control at 2 ppm [2] | pest or weed control at 20 ppm [2] | pest or weed control at 200 ppm [2] | pest or weed control at 0.2 ppm [3] | pest or weed control at 2 ppm [3] | pest or weed control at 20 ppm [3] | pest or weed control at 200 ppm [3]

CN(C)CNC(=O)c1cnccc1C(F)(F)F [I.6]
0%: pest or weed control at 0.2 ppm [2]
100%: pest or weed control at 0.2 ppm [3] | pest or weed control at 2 ppm [3] | pest or weed control at 20 ppm [3] | pest or weed control at 200 ppm [3]
20%: pest or weed control at 2 ppm [2]
40%: pest or weed control at 20 ppm [2] | pest or weed control at 200 ppm [2]

CC(C)n1nc(-c2cnccc2C(F)(F)F)oc1=O [I.7]
0%: pest or weed control at 0.2 ppm [2] | pest or weed control at 2 ppm [2] | pest or weed control at 20 ppm [2]
100%: pest or weed control at 0.2 ppm [3] | pest or weed control at 2 ppm [3] | pest or weed control at 20 ppm [3] | pest or weed control at 200 ppm [3]
20%: pest or weed control at 200 ppm [2]

CN(OC(=O)OCc1ccccc1)C(=O)c1cnccc1C(F)(F)F [I.8]
60%: pest or weed control at 0.2 ppm [2]
100%: pest or weed control at 2 ppm [2] | pest or weed control at 20 ppm [2] | pest or weed control at 200 ppm [2] | pest or weed control at 0.2 ppm [3] | pest or weed control at 2 ppm [3] | pest or weed control at 20 ppm [3] | pest or weed control at 200 ppm [3]

CCOC(=O)ON(C)C(=O)c1cnccc1C(F)(F)F [I.9]
20%: pest or weed control at 0.2 ppm [2]
100%: pest or weed control at 2 ppm [2] | pest or weed control at 20 ppm [2] | pest or weed control at 200 ppm [2] | pest or weed control at 0.2 ppm [3] | pest or weed control at 2 ppm [3] | pest or weed control at 20 ppm [3] | pest or weed control at 200 ppm [3]

CC(C)CC(=O)ON(C)C(=O)c1cnccc1C(F)(F)F [I.10]
60%: pest or weed control at 2 ppm [2]
40%: pest or weed control at 0.2 ppm [2]
100%: pest or weed control at 20 ppm [2] | pest or weed control at 200 ppm [2] | pest or weed control at 0.2 ppm [3] | pest or weed control at 2 ppm [3] | pest or weed control at 20 ppm [3] | pest or weed control at 200 ppm [3]

CC(C#N)NC(=O)c1cnccc1C(F)(F)F (stereo not drawn) [I.11]
100%: pest or weed control at 0.2 ppm [3] | pest or weed control at 2 ppm [3] | pest or weed control at 20 ppm [3] | pest or weed control at 200 ppm [3]

CC(C)NOC(=O)c1cnccc1C(F)(F)F [I.12]
80%: pest or weed control at 2 ppm [2]
100%: pest or weed control at 20 ppm [2] | pest or weed control at 200 ppm [2] | pest or weed control at 0.2 ppm [3] | pest or weed control at 2 ppm [3] | pest or weed control at 20 ppm [3] | pest or weed control at 200 ppm [3]
0%: pest or weed control at 0.2 ppm [2]

O=C(NC(=O)c1cnccc1C(F)(F)F)c1cccs1 [I.13]
0%: pest or weed control at 0.2 ppm [2] | pest or weed control at 0.2 ppm [3]
100%: pest or weed control at 20 ppm [2] | pest or weed control at 200 ppm [2] | pest or weed control at 2 ppm [3] | pest or weed control at 20 ppm [3] | pest or weed control at 200 ppm [3]
60%: pest or weed control at 2 ppm [2]

N/C(=N/C(=O)c1cnccc1C(F)(F)F)c1ncccn1 [I.14]
0%: pest or weed control at 0.2 ppm [3]
100%: pest or weed control at 20 ppm [2] | pest or weed control at 200 ppm [2] | pest or weed control at 2 ppm [3] | pest or weed control at 20 ppm [3] | pest or weed control at 200 ppm [3]
40%: pest or weed control at 0.2 ppm [2] | pest or weed control at 2 ppm [2]

CCN(Cc1ccccc1)C(=O)c1cnccc1C(F)(F)F [I.15]
100%: pest or weed control at 0.2 ppm [3] | pest or weed control at 2 ppm [3] | pest or weed control at 20 ppm [3] | pest or weed control at 200 ppm [3]
0%: pest or weed control at 0.2 ppm [2] | pest or weed control at 2 ppm [2] | pest or weed control at 20 ppm [2] | pest or weed control at 200 ppm [2]

CCOCn1c(-c2ccc(Cl)cc2)c(C#N)c(Br)c1C(F)(F)F [chlorfenapyr]
100.0: 48 hr mort ([1]; Table B2, 2 ppm alone)
6.7: 24 hr mort ([1]; Table B1, 1 ppm alone)
16.7: 48 hr mort ([1]; Table B1, 0.5 ppm alone)
50.0: 48 hr mort ([1]; Table B1, 1 ppm alone) | 24 hr mort ([1]; Table B2, 2 ppm alone)
90.0: 48 hr mort ([1]; Table B1, 2 ppm alone)
40.0: 24 hr mort ([1]; Table B1, 2 ppm alone) | 48 hr mort ([1]; Table B2, 1 ppm alone)
3.3: 48 hr mort ([1]; Table B1, 0.25 ppm alone)
20.0: 24 hr mort ([1]; Table B2, 1 ppm alone)
0.0: 24 hr mort ([1]; Table B1, 0.0625 ppm alone) | 48 hr mort ([1]; Table B1, 0.0625 ppm alone) | KD ([1]; Table B1, 0.0625 ppm alone) | 24 hr mort ([1]; Table B1, 0.125 ppm alone) | 48 hr mort ([1]; Table B1, 0.125 ppm alone) | KD ([1]; Table B1, 0.125 ppm alone) | 24 hr mort ([1]; Table B1, 0.25 ppm alone) | KD ([1]; Table B1, 0.25 ppm alone) | 24 hr mort ([1]; Table B1, 0.5 ppm alone) | KD ([1]; Table B1, 0.5 ppm alone) | KD ([1]; Table B1, 1 ppm alone) | KD ([1]; Table B1, 2 ppm alone) | 24 hr mort ([1]; Table B2, 0.0625 ppm alone) | 48 hr mort ([1]; Table B2, 0.0625 ppm alone) | KD ([1]; Table B2, 0.0625 ppm alone) | 24 hr mort ([1]; Table B2, 0.125 ppm alone) | 48 hr mort ([1]; Table B2, 0.125 ppm alone) | KD ([1]; Table B2, 0.125 ppm alone) | 24 hr mort ([1]; Table B2, 0.25 ppm alone) | 48 hr mort ([1]; Table B2, 0.25 ppm alone) | KD ([1]; Table B2, 0.25 ppm alone) | 24 hr mort ([1]; Table B2, 0.5 ppm alone) | 48 hr mort ([1]; Table B2, 0.5 ppm alone) | KD ([1]; Table B2, 0.5 ppm alone) | KD ([1]; Table B2, 1 ppm alone) | KD ([1]; Table B2, 2 ppm alone)

CCN(CC)c1nc(C)cc(OP(=S)(OC)OC)n1 [pirimiphos-methyl]
0.0: 24 hr mort ([1]; Table B3, 0.03125 ppm alone) | 48 hr mort ([1]; Table B3, 0.03125 ppm alone) | KD ([1]; Table B3, 0.03125 ppm alone) | 24 hr mort ([1]; Table B3, 0.0625 ppm alone) | 48 hr mort ([1]; Table B3, 0.0625 ppm alone) | KD ([1]; Table B3, 0.0625 ppm alone) | 24 hr mort ([1]; Table B3, 0.125 ppm alone) | 48 hr mort ([1]; Table B3, 0.125 ppm alone) | KD ([1]; Table B3, 0.125 ppm alone) | KD ([1]; Table B3, 0.25 ppm alone) | KD ([1]; Table B3, 0.5 ppm alone) | knockdown after 1 hour, Alone ([1]; Table B10, 0.0625 ppm) | knockdown after 1 hour, Alone ([1]; Table B10, 0.125 ppm)
100.0: 24 hr mort ([1]; Table B3, 0.5 ppm alone) | 48 hr mort ([1]; Table B3, 0.5 ppm alone) | 24 hr mort ([1]; Table B3, 1 ppm alone) | 48 hr mort ([1]; Table B3, 1 ppm alone) | knockdown after 1 hour, Alone ([1]; Table B10, 0.5 ppm) | knockdown after 1 hour, Alone ([1]; Table B10, 1 ppm)
10.0: KD ([1]; Table B3, 1 ppm alone)
50.0: 24 hr mort ([1]; Table B3, 0.25 ppm alone) | 48 hr mort ([1]; Table B3, 0.25 ppm alone) | knockdown after 1 hour, Alone ([1]; Table B10, 0.25 ppm)
